These are literature values, as cited in US20100105139A1, “Ligand Targeted Nanocapsules for the delivery of RNAi and other Agents” (priority 2008, published 2010).

SMILES strings stand for the structures.

This data set deals with advanced stage melanoma. The settings on record: melanoma patients.

With `COc1cccc2c1C(=O)c1c(O)c3c(c(O)c1C2=O)C[C@@](O)(C(=O)CO)C[C@@H]3O[C@H]1C[C@H](N)[C@H](O)[C@H](C)O1` [DOX, Doxorubicin], the response rates entry is recorded as “essentially ineffective”.
